pIC50: −log10 of the molar value. Where two headings read alike, the source gives them in different places. Numbered stars: 1 amine (or outer) side, 2 acyl side, 3 side chain; on linkers, the order of the positions; unused ones are H or OH. Bridge positions count the residues as written; N and C are the ends. Square brackets hold non-standard residues; d marks the D form. Peptide text beside a SMILES is read from it. Phe(4-CF3) = N[C@@H](Cc1ccc(C(F)(F)F)cc1)C(=O)O; Bip = N[C@@H](Cc1ccc(-c2ccccc2)cc1)C(=O)O; dBip = N[C@H](Cc1ccc(-c2ccccc2)cc1)C(=O)O; Phe(4-NH2) = Nc1ccc(C[C@H](N)C(=O)O)cc1; d(hPhe) = N[C@H](CCc1ccccc1)C(=O)O; 2Thi = N[C@@H](Cc1cccs1)C(=O)O; d2Thi = N[C@H](Cc1cccs1)C(=O)O; Suc = O=C(CCC(=O)[*:2])[*:1]
Columns and labels:
[1] = tested on: TNF-α (degradation of IkB in HeLa cells or A431 cells); assay: Human cell-based assay: inhibition of TNF-α induced degradation of IkB; settings: for inhibition at 5 µM: read-out: Inhibition at Various Compound Concentrations, 5 μM; for inhibition at 10 µM: read-out: Inhibition at Various Compound Concentrations, 10 μM
rat paw edema model = assay: Rat paw edema model (carrageenan), anti-inflammatory activity; assay type: in vivo, Sprague-Dawley (SD) rats; settings: 1 mg/kg IV
Method: Compounds 3, 4, 10 and 202 were tested in a rat paw edema model to determine anti-inflammatory activity. Seven groups (one for Vehicle A [15 mL PEG400, 3 mL Graves Grain alcohol (190 proof), 1.8 mL dimethylacetamide and 10.2 mL deionized water] alone as a negative control, one for Vehicle B [0.1M NaHCO3] alone as a negative control, one for each of the four test compounds dissolved in Vehicle A, and one for indomethacin dissolved in Vehicle B as a positive control), each group containing six Sprague-Dawley (SD) rats (180-200 g) randomized by weight. Initial paw volumes were measured by placing the right hind limb of the rat up to the top of the hock in a beaker of water sitting on a scale that had been tared to zero and recording the readout.
Rats were pre-treated with either i) one of the test compounds, or ii) a positive or negative control. Vehicle A alone and test compound dissolved in Vehicle A (Compound 3-1.0 mg/kg; Compound 4-0.4 mg/kg; Compound 10-0.5 mg/kg; Compound 202-0.3 mg/kg) were administered by intravenous injection. Vehicle B alone and indomethacin (5 mg/kg in 0.1M NaHCO3) was administered by intraperitoneal injection. Thirty minutes after this pretreatment, rats were anesthetized and injected with 0.1 mL of carrageenan (10 mg/mL in water) in the subplantar region of the right hind foot using a ½ inch 26 gauge needle attached to a 1 cc syringe.
At 2, 4 and 6 hours post-carrageenan injection, the right hind foot of each rat was measured for paw volume as described above.
We next investigated the effect of varying intravenous doses of Compound 202 (0.05, 0.10, 0.30, and 1.00 mg/kg) in the same model using the same protocol (6 rats per group). […] We also investigated the affect of oral dosing (10 mg/kg) of Compound 202 in the same model. For oral dosing, a 2.5 mg/mL suspension of Compound 202 was prepared in Vehicle A. Rats were orally administered 4 mL/kg of that suspension.

[2] = target: T1, TNFα / TNFα receptor (TNFα R1/Fc) (Homo sapiens, UniProt P01375); assay: Inhibition of binding of TNFα to the TNFα receptor (plate ELISA competition); settings: Table 2; read-out: Activity (IC50, inhibition of TNFα binding to TNFα R1/Fc)
T1 construct: purchased R&D Systems
T1 sequence (P01375 77-233 limits assumed, species assumed): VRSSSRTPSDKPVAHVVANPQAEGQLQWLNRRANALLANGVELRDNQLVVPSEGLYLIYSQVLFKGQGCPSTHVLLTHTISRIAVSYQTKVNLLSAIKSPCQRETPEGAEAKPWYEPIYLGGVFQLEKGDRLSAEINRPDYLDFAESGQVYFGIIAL
How it was run: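 Compound dilutions were preincubated 30 min at RT with 8.33 nM TNFα R1/Fc in PBST with 2% DMSO, then added to wells coated with 15 nM TNFα for 30 min. Bound receptor was detected with HRP anti-human Fc and TMB, read as A450.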

[3] = 5 μM compound, HeLa or A431 cells
[4] = 10 μM compound, HeLa or A431 cells

pIC50 [2]	Structure (SMILES)	Change in Paw Volume (rat paw edema model; Table 6, 2 h post-carrageenan)	Change in Paw Volume (rat paw edema model; Table 6, 4 h post-carrageenan)	Change in Paw Volume (rat paw edema model; Table 6, 6 h post-carrageenan)	inhibition at 5 µM [1, 3]	inhibition at 10 µM [1, 4]	Change in Paw Volume (rat paw edema model; Table 4, 2 h post-carrageenan)	Change in Paw Volume (rat paw edema model; Table 4, 4 h post-carrageenan)	Change in Paw Volume (rat paw edema model; Table 4, 6 h post-carrageenan)	other results
> 5.00	O=C(O)[C@H](Cc1ccccc1)NC(=O)[C@@H]1Cc2ccc(cc2)NC(=O)[C@H](O)[C@@H](O)C(=O)N[C@H](Cc2cccs2)C(=O)N[C@@H](Cc2ccc(-c3ccncc3)cc2)C(=O)N[C@H](Cc2ccccc2)C(=O)N1 [Compound 442]				10 to 50%	10 to 50%				Change in Paw Volume (rat paw edema model; Table 5, 2 h post-carrageenan): 0.86 ± 0.15 mL; Change in Paw Volume (rat paw edema model; Table 5, 4 h post-carrageenan): 1.08 ± 0.16 mL; Change in Paw Volume (rat paw edema model; Table 5, 6 h post-carrageenan): 1.01 ± 0.14 mL
> 5.00	O=C1CCC(=O)N[C@@H](Cc2cccs2)C(=O)N[C@H](Cc2ccc(-c3ccccc3)cc2)C(=O)N[C@@H](Cc2ccccc2)C(=O)N[C@H](C(=O)O)Cc2ccc(cc2)N1 [Compound 493] ([2Thi][dBip]F[Phe(4-NH2)]-OH; linker N-4 via Suc)									Change in Paw Volume (rat paw edema model; Table 8, 2 h post-carrageenan): 1.04 ± 0.15 mL; Change in Paw Volume (rat paw edema model; Table 8, 4 h post-carrageenan): 1.12 ± 0.10 mL; Change in Paw Volume (rat paw edema model; Table 8, 6 h post-carrageenan): 1.03 ± 0.15 mL

Second part, the compound before the results:

Structure (SMILES)	pIC50 [2]	Change in Paw Volume (rat paw edema model; Table 6, 2 h post-carrageenan)	Change in Paw Volume (rat paw edema model; Table 6, 4 h post-carrageenan)	Change in Paw Volume (rat paw edema model; Table 6, 6 h post-carrageenan)	inhibition at 5 µM [1, 3]	inhibition at 10 µM [1, 4]	Change in Paw Volume (rat paw edema model; Table 4, 2 h post-carrageenan)	Change in Paw Volume (rat paw edema model; Table 4, 4 h post-carrageenan)	Change in Paw Volume (rat paw edema model; Table 4, 6 h post-carrageenan)	other results
CC(C)(C)Oc1ccc(C[C@@H]2NC(=O)[C@@H](Cc3ccc(-c4ccccc4)cc3)NC(=O)[C@H](Cc3cccs3)NC(=O)COc3ccc(cc3)C[C@@H](C(=O)O)NC2=O)cc1 [Compound 346]	> 5.00	1.17 ± 0.06 mL	1.20 ± 0.09 mL	1.34 ± 0.09 mL						inhibition at 5 µM [1]: > 80%; inhibition at 10 µM [1]: 50 to 80%
O=C1CCC(=O)N[C@H](Cc2cccs2)C(=O)N[C@@H](Cc2ccc(-c3ccccc3)cc2)C(=O)N[C@H](Cc2ccccc2)C(=O)N[C@H](C(=O)N[C@H](Cc2ccccc2)C(=O)O)Cc2ccc(cc2)N1 [Compound 33] ([d2Thi][Bip][dF][Phe(4-NH2)][dF]-OH; linker N-4 via Suc)	> 5.00				10 to 50%	50 to 80%	1.10 ± 0.22 mL	1.49 ± 0.11 mL	1.46 ± 0.07 mL	
O=C(O)[C@@H]1Cc2ccc(cc2)NC(=O)[C@H](O)[C@@H](O)C(=O)N[C@H](Cc2cccs2)C(=O)N[C@@H](Cc2ccc(-c3ccncc3)cc2)C(=O)N[C@H](Cc2ccccc2)C(=O)N1 [Compound 330]	> 5.00	1.20 ± 0.20 mL	1.32 ± 0.17 mL	1.33 ± 0.22 mL	> 80%	10 to 50%				
O=C1CCC(=O)N[C@H](CCc2ccccc2)C(=O)N[C@@H](Cc2ccc(C(F)(F)F)cc2)C(=O)N[C@H](Cc2ccccc2)C(=O)N[C@H](C(=O)N[C@@H](Cc2ccccc2)C(=O)O)Cc2ccc(cc2)N1 [Compound 11] ([d(hPhe)][Phe(4-CF3)][dF][Phe(4-NH2)]F-OH; linker N-4 via Suc)	> 5.00				10 to 50%	50 to 80%	1.37 ± 0.16 mL	1.43 ± 0.13 mL	1.45 ± 0.08 mL	

— patent US8338565B2, “Macrocyclic compounds for inhibition of tumor necrosis factor alpha” (Ensemble Therapeutics Corporation, priority 2008, dated 2012)
